Source: patent US8993603B2, “Pharmaceutical composition and method using antifungal agent in combination” (Toyama Chemical Co., Ltd., priority 2005, dated 2015)

Key:
[1] = system: Aspergillus fumigatus TIMM0063; experiment: Mouse systemic infection model using Aspergillus fumigatus; type: in vivo; settings: ICR mice, 15 days after infection, test compound 0.1 mg/kg s.c., once a day, 7 times
Procedure: In vivo activity was evaluated employing a mouse systemic infection model using Aspergillus fumigatus.
As for the inoculum, mice (four-week old (at infection) male ICR mice, 10 mice per group) were intraperitoneally administered with cyclophosphamide 4 days prior to infection (200 mg/kg) and the day after infection (100 mg/kg). A conidium suspension of Aspergillus fumigatus TIMM0063 was diluted with sterile physiological saline solution containing 0.05% Tween 80 (manufactured by Difco Laboratories) to prepare an inoculum. The mice were intravenously inoculated in their tails with 0.2 mL of the inoculum to induce infection (approximately 4×10^4 CFU/mouse).
(§1) The test compound was dissolved in a small amount of 0.1 mol/L hydrochloric acid, and the resultant solution was diluted with sterile physiological saline solution.
Voriconazole was dissolved in 50 mg/mL aqueous sulfobutyl ether β-cyclodextrin sodium (SIDIX) solution.
Flucytosine was suspended in 0.5% methyl cellulose solution.
(§2) The test compound (0.1 mg/kg) and voriconazole (5 mg/kg) were subcutaneously administered and flucytosine (50 mg/kg) was orally administered 2 hours after infection and then once a day for 6 days for a total of 7 times. The test was carried out for the case where each of the agents was administered singly and in combination by administering each of the agents immediately after the test compound had been administered. Efficacy in the susceptibility test was evaluated by the survival rate 15 days after infection.

[2] = system: Cryptococcus neoformans ATCC90112; experiment: Mouse systemic infection model using Cryptococcus neoformans; type: in vivo; settings: ICR mice, 22 days after infection, test compound 0.125 mg/kg s.c., once a day, 7 times
Procedure: In vivo activity was evaluated employing a mouse systemic infection model using Cryptococcus neoformans.
Mice (four-week old (at infection) male ICR mice, 10 mice per group) were intraperitoneally administered with cyclophosphamide 4 days prior to infection (200 mg/kg) and the day after infection (100 mg/kg). An inoculum was prepared by suspending in sterile physiological saline solution Cryptococcus neoformans ATCC90112 on a SDA flat plate that had been cultured for one night at 35° C., counting the number of cells using a biological microscope, and then diluting with sterile physiological saline solution. The mice were intravenously inoculated in their tails with 0.2 mL of the inoculum to induce infection (approximately 8×10^4 CFU/mouse).
as §1
Fluconazole was prepared using sterile physiological saline solution.
Amphotericin B was dissolved in a 5% aqueous glucose solution.
as §2, with “(0.125 mg/kg), fluconazole (5” for “(0.1”, “amphotericin B (0.25” for “voriconazole (5”, “subcutaneously” for “subcutaneously administered and flucytosine (50 mg/kg) was orally”, “days” for “days for”, “where the” for “where”, “22” for “15”

[3] = Table 5, flucytosine 50 mg/kg orally
[4] = Table 7, amphotericin B 0.25 mg/kg s.c.
[5] = Table 6, fluconazole 5 mg/kg s.c.
[6] = Table 4, voriconazole 5 mg/kg s.c.

## Nc1[nH]c(=O)ncc1F [5-FC, flucytosine]
[1]; [3]
  Survival rate (%): 10%

## C[C@@H]1[C@H](O)[C@@H](C)/C=C/C=C/C=C/C=C/C=C/C=C/C=C/[C@H](O[C@@H]2O[C@H](C)[C@@H](O)[C@H](N)[C@@H]2O)C[C@@H]2O[C@](O)(C[C@@H](O)C[C@@H](O)[C@H](O)CC[C@@H](O)C[C@@H](O)CC(=O)O[C@H]1C)C[C@H](O)[C@H]2C(=O)O [AMPH-B, amphotericin B]
[2]; [4]
  Survival rate (%): 20%

## OC(Cn1cncn1)(Cn1cncn1)c1ccc(F)cc1F [FLCZ, fluconazole]
[2]; [5]
  Survival rate (%): 10%

## N=C(N)c1ccc(OCCCC2CCN(CCCOc3ccc(C(=N)N)cc3)CC2)cc1 [Test Compound]
[2]; [5]
  Survival rate (%): 20%
[2]; [4]
  Survival rate (%): 0%
[1]; [6]
  Survival rate (%): 10%
[1]; [3]
  Survival rate (%): 10%

## C[C@@H](c1ncncc1F)[C@](O)(Cn1cncn1)c1ccc(F)cc1F [VLCZ, voriconazole]
[1]; [6]
  Survival rate (%): 10%
